# Measured values as given in US9655887B2, “Pharmaceutical composition and the use thereof, and application regime of said pharmaceutical composition for on-demand contraception” (BAYER PHARMA AKTIENGESELLSCHAFT, priority 2013, dated 2017).
# Target: EP2 subtype of the human PGE2 receptor (hEP2 receptor) (Homo sapiens, UniProt P43116)
# Assay: cAMP antagonism test, human prostaglandin E2 (subtype EP2) receptor signal
# Type: cell-based
# From the text: 1. Detection of Antagonism to the Human Prostaglandin E2 (Subtype EP2) Receptor Signal
# The binding of PGE2 to the EP2 subtype of the human PGE2 receptor induces the activation of membrane-located adenylate cyclases and leads to the formation of cAMP. In the presence of the phosphodiesterase inhibitor IBMX, the cAMP accumulated owing to this stimulation and released by cell lysis is used in a competitive detection method. In this test, the cAMP present in the lysate competes with a fluorescence-labelled cAMP (cAMP-d2) for binding to an Eu cryptate-labelled anti-cAMP antibody.
# In the absence of cellular cAMP, a maximal signal is produced, which is attributable to the binding of this cAMP-d2 molecule to the antibody. After excitation of the […] at 337 nm, there is a fluorescence resonance energy transfer (FRET) to the Eu cryptate molecules of the anti-cAMP antibody (labelled therewith), followed by a long-lasting emission signal at 665 nm (and at […]). Both signals are measured in a suitable measurement instrument with a time delay, i.e. after decay of the background fluorescence. Any increase in the low FRET signal caused by prostaglandin E2 administration (measured as well ratio change=emission665nm/emission620nm*10000) indicates the action of antagonists.
# 1.2.1. Test for Antagonism (Data Per Well of a 384-Well Plate):
# To a test plate with the substance solutions already added (0.05 μl; 100% DMSO, concentration range from 0.8 nM-16.5 nM) were added 4 μl of a cAMP-d2/cell suspension (625000 cells/ml). After a 20-minute preincubation at room temperature (RT), 2 μl of a 3×PGE2 solution (1.5 nM, in PBS-IBMX) were added and incubated in the presence of the agonist for a further 60 mins at RT (volume: […]). Next the reaction was stopped by addition of 2 μl of lysis buffer and incubated for a further 20 mins at RT before the actual measurement (volume: ˜8 μl).
# EP2 subtype of the human PGE2 receptor (hEP2 receptor), sequence (P43116 whole entry): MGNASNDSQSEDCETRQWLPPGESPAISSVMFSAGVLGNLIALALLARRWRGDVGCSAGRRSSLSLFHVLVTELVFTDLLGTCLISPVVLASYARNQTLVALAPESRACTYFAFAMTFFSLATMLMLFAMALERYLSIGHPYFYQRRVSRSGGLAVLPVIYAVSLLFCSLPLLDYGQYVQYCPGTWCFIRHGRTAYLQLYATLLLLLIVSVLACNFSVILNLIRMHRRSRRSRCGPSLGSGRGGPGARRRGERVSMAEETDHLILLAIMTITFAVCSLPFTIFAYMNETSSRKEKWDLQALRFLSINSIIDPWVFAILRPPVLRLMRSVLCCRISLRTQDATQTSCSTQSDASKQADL
row,IC50 [nM],Structure (SMILES)
1,> 50,"Cc1c(C(=O)NCCOC(F)(F)F)ccc2nn(CC3CCN(C(=O)c4ccc(Oc5ccc(C(F)(F)F)cc5)cc4)CC3)cc12 [Example E80, 4-methyl-N-[2-(trifluoromethoxy)ethyl]-2-[(1-{4-[4-(trifluoromethyl)phenoxy]-benzoyl}piperidin-4-yl)methyl]-2H-indazole-5-carboxamide]"
2,> 50,"[2H]C([2H])([2H])OC([2H])([2H])C([2H])([2H])NC(=O)c1ccc2nn(CC3CCN(C(=O)c4ccc(Oc5ccc(F)cc5)cc4)CC3)cc2c1C [Example E86, 2-({1-[4-(4-fluorophenoxy)benzoyl]piperidin-4-yl}methyl)-4-methyl-N-{2-[(^2H3)methyloxy](^2H4)ethyl}-2H-indazole-5-carboxamide]"
3,> 50,"COc1cc(F)ccc1-c1ccc(C(=O)N2CCC(Cn3cc4c(C)c(C(=O)NCC(F)(F)F)ccc4n3)CC2)cc1 [Example E143, 2-({1-[(4′-fluoro-2′-methoxybiphenyl-4-yl)carbonyl]piperidin-4-yl}methyl)-4-methyl-N-(2,2,2-trifluoroethyl)-2H-indazole-5-carboxamide]"
4,> 50,"COCCNC(=O)c1ccc2nn(CC3CCN(C(=O)c4ccc(N5CCCC5)cc4F)CC3)cc2c1C [Example E39, 2-({1-[2-fluoro-4-(pyrrolidin-1-yl)benzoyl]piperidin-4-yl}methyl)-N-(2-methoxyethyl)-4-methyl-2H-indazole-5-carboxamide]"
5,> 50,"Cc1c(C(=O)NCCOC(C)C)ccc2nn(CC3CCN(C(=O)c4ccc(C(F)(F)F)cc4)CC3)cc12 [Example E74, N-(2-isopropoxyethyl)-4-methyl-2-({1-[4-(trifluoromethyl)benzoyl]piperidin-4-yl}-methyl)-2H-indazole-5-carboxamide]"
6,> 50,"COc1ccc(-c2ccc(C(=O)N3CCC(Cn4cc5c(C)c(C(=O)NCC(F)(F)F)ccc5n4)CC3)cc2)c(C)c1 [Example E141, 2-({1-[(4′-methoxy-2′-methylbiphenyl-4-yl)carbonyl]piperidin-4-yl}methyl)-4-methyl-N-(2,2,2-trifluoroethyl)-2H-indazole-5-carboxamide]"
7,> 50,"COCCNC(=O)c1ccc2nn(CC3CCN(C(=O)c4cccc(C)c4)CC3)cc2c1C [Example E26, N-(2-methoxyethyl)-4-methyl-2-{[1-(3-methylbenzoyl)piperidin-4-yl]methyl}-2H-indazole-5-carboxamide]"
8,> 50,"COCCNC(=O)c1ccc2nn(CC3CCN(C(=O)c4ccc(OC)cc4)CC3)cc2c1C [Example E20, 2-{[1-(4-methoxybenzoyl)piperidin-4-yl]methyl}-N-(2-methoxyethyl)-4-methyl-2H-indazole-5-carboxamide]"
9,> 50,"COCCNC(=O)c1ccc2nn(CC3CCN(C(=O)c4ccc(Oc5ccc(C(F)(F)F)nc5)cc4)CC3)cc2c1C [Example E164, N-(2-methoxyethyl)-4-methyl-2-{[1-(4-{[6-(trifluoromethyl)pyridin-3-yl]oxy}benzoyl)-piperidin-4-yl]methyl}-2H-indazole-5-carboxamide]"
10,> 50,"COCCNC(=O)c1ccc2nn(CC3CCN(C(=O)c4ccc(Oc5ccc(C(C)(C)C)cc5)cc4)CC3)cc2c1C [Example E15, 2-({1-[4-(4-tert-butylphenoxy)benzoyl]piperidin-4-yl}methyl)-N-(2-methoxyethyl)-4-methyl-2H-indazole-5-carboxamide]"
11,> 50,"COCCNC(=O)c1ccc2nn(CC3CN(C(=O)c4ccc(Oc5ccc(C(F)(F)F)cc5)cc4)C3)cc2c1C [Example E95, N-(2-methoxyethyl)-4-methyl-2-[(1-{4-[4-(trifluoromethyl)phenoxy]benzoyl}azetidin-3-yl)methyl]-2H-indazole-5-carboxamide]"
12,> 50,"COCCNC(=O)c1ccc2nn(CC3CN(C(=O)c4ccc(Cl)cc4F)C3)cc2c1C [Example E91, 2-{[1-(4-chloro-2-fluorobenzoyl)azetidin-3-yl]methyl}-N-(2-methoxyethyl)-4-methyl-2H-indazole-5-carboxamide]"
